Measured values: the NIST ThermoML archive (doi:10.1016/j.fluid.2012.01.023)

What was measured:
[1] = xn = mol fraction of the nth substance listed; settings: Liquid; for viscosity: Electromagnetically Driven Piston; for mass density: Vibrating tube method
[2] = Liquid, Vibrating tube method

CCCCCCCCCCCCCC [tetradecane] + C
[1]
Settings | mass density [kg/m3] | viscosity [mPa·s]
294.4 K, x2 = 0.232 | 740 | 1.48
294.6 K, x2 = 0.331 | 728 | 1.16
294.6 K, x2 = 0.364 | 723 | 1.05
294.8 K, x2 = 0.112 | 752 | 1.74
294.8 K, x2 = 0.176 | 746 | 1.64
294.8 K, x2 = 0.282 | 734 | 1.33
324 K, x2 = 0.159 | 726 | 0.97
324 K, x2 = 0.213 | 722 | 0.91
324 K, x2 = 0.264 | 716 | 0.82
324.1 K, x2 = 0.1 | 732 | 1.07
324.1 K, x2 = 0.306 | 711 | 0.75
324.1 K, x2 = 0.342 | 706 | 0.7
373.3 K, x2 = 0.193 | 689 | 0.51
373.3 K, x2 = 0.239 | 683 | 0.49
373.5 K, x2 = 0.09 | 699 | 0.57
373.5 K, x2 = 0.143 | 694 | 0.54
373.5 K, x2 = 0.279 | 678 | 0.46
373.5 K, x2 = 0.317 | 674 | 0.44
447.5 K, x2 = 0.176 | 636 | 0.28
447.5 K, x2 = 0.223 | 631 | 0.27
447.6 K, x2 = 0.078 | 646 | 0.31
447.6 K, x2 = 0.137 | 640 | 0.29
447.6 K, x2 = 0.266 | 625 | 0.25
447.6 K, x2 = 0.303 | 620 | 0.24

CCCCCCCCCCCCCC [tetradecane]
[2]
Settings | mass density [kg/m3]
294.4 K, 5030 kPa | 764
294.6 K, 8000 kPa | 766
294.6 K, 9490 kPa | 767
294.8 K, 2050 kPa | 760
294.8 K, 3540 kPa | 762
294.8 K, 6500 kPa | 765
324 K, 3540 kPa | 743
324 K, 5050 kPa | 744
324 K, 6560 kPa | 746
324.1 K, 2070 kPa | 742
324.1 K, 8070 kPa | 747
324.1 K, 9540 kPa | 748
373.3 K, 5060 kPa | 711
373.3 K, 6560 kPa | 712
373.5 K, 2100 kPa | 708
373.5 K, 3560 kPa | 709
373.5 K, 8030 kPa | 713
373.5 K, 9500 kPa | 715
447.5 K, 4920 kPa | 660
447.5 K, 6450 kPa | 662
447.6 K, 1990 kPa | 655
447.6 K, 3590 kPa | 658
447.6 K, 7960 kPa | 665
447.6 K, 9470 kPa | 667
